Laboratory results published in patent publication US9527869B2, “Indolizine derivatives as phoshoinositide 3-kinases inhibitors” (CHIESI FARMACEUTICI S.P.A., priority 2014, dated 2016).

Assays:
Format in all cases: biochemical
PI3Kα = biological target: T1, PI3Kα (Homo sapiens, UniProt P42336); assay: In vitro determination of the PI3K enzyme inhibitory activity in the cell free assay (ADP-Glo Kinase Assay), PI3Kα; details: ATP 50 μM, read-out: PI3K alpha inhibition
T1 construct: purchased Millipore Ltd (Billerica, Mass.)
T1 sequence (P42336 whole entry): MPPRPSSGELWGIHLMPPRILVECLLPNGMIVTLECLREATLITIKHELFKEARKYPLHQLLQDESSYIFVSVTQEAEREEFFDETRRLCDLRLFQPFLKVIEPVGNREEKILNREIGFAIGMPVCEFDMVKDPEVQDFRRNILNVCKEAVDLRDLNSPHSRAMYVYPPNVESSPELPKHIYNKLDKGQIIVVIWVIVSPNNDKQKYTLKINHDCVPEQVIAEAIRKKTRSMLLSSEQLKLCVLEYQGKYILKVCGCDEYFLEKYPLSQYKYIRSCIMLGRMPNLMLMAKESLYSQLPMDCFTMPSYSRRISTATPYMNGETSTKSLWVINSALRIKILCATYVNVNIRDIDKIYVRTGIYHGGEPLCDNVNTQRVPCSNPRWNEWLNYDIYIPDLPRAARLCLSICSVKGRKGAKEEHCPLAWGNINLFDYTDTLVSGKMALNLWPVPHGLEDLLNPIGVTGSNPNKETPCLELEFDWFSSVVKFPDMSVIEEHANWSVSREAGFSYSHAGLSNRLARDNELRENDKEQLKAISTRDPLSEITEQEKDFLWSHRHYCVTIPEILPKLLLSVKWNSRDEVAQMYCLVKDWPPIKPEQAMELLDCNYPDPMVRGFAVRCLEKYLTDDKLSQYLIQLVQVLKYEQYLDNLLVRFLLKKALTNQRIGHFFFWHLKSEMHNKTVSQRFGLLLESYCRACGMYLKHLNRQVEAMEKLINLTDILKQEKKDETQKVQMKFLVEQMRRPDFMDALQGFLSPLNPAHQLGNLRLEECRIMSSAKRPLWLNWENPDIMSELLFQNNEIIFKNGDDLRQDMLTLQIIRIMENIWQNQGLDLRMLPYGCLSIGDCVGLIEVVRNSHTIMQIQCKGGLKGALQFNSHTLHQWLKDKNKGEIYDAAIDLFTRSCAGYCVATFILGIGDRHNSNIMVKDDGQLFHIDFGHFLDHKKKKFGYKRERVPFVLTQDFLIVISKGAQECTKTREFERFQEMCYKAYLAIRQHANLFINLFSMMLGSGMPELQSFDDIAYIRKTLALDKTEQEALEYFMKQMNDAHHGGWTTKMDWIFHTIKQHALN
T1 sequence (P27986 whole entry partner): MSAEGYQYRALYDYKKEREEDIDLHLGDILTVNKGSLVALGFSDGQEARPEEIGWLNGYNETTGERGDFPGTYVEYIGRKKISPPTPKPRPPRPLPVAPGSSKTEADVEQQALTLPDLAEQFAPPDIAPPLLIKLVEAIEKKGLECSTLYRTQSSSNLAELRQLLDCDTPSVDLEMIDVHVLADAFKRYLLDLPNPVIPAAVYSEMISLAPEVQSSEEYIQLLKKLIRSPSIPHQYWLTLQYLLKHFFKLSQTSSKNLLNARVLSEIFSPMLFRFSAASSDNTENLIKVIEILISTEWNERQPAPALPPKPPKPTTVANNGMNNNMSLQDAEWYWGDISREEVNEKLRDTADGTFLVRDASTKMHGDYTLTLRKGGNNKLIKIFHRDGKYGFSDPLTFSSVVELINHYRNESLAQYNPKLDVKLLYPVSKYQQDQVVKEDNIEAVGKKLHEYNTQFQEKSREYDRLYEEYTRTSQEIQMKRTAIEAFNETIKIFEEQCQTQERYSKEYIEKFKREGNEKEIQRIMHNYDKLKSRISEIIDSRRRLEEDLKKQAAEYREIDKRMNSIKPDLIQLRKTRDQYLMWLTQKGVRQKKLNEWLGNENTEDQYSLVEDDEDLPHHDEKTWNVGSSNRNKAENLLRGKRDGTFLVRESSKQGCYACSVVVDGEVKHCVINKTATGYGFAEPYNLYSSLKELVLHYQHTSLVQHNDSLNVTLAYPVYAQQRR
Procedure, shortened: (§1)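 IC50 values came from four-parameter logistic fitting of ADP-Glo luminescence after 60 min kinase reactions at room temperature. ATP (final) was set per isoform: α 50 μM, β 100 μM, γ 30 μM, δ 80 μM. Substrates were phosphatidylinositol and phosphatidylserine (50 μM in 2× Tris pH 7.5 buffer), with human recombinant enzymes.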

PI3Kβ = biological target: T2, PI3Kβ (Homo sapiens, UniProt P42338); assay: In vitro determination of the PI3K enzyme inhibitory activity in the cell free assay (ADP-Glo Kinase Assay), PI3Kβ; details: ATP 100 μM, read-out: PI3K beta inhibition
T2 construct: purchased Millipore Ltd (Billerica, Mass.)
T2 sequence (P42338 whole entry): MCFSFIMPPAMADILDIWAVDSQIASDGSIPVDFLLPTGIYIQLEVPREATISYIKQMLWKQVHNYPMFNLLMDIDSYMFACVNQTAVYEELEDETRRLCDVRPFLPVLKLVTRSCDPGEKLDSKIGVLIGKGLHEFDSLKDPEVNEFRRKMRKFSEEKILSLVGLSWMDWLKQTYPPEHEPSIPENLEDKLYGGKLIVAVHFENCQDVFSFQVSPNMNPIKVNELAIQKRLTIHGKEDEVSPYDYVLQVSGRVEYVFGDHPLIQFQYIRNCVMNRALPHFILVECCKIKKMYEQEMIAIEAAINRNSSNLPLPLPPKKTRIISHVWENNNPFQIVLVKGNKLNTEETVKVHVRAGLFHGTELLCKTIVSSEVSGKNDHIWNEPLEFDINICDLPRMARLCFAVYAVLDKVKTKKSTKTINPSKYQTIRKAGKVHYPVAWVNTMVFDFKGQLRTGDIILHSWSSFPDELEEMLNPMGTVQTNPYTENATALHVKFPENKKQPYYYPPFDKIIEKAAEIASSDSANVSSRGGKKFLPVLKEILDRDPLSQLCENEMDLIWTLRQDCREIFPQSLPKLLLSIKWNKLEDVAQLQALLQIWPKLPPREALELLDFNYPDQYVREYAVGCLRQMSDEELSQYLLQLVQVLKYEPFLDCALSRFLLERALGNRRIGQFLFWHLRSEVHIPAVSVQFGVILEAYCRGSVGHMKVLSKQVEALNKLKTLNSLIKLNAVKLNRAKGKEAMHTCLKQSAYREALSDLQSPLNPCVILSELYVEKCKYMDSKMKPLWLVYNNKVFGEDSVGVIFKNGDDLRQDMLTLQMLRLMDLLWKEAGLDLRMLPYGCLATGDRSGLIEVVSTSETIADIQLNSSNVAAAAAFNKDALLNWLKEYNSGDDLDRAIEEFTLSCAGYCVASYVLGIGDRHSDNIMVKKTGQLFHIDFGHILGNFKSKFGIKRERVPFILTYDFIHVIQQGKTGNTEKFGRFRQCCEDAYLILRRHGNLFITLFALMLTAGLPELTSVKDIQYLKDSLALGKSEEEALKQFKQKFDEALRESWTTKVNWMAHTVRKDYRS
T2 sequence (P27986 whole entry partner): as the sequence (P27986 whole entry partner) above
Procedure, shortened: as §1

PI3Kγ = biological target: T3, PI3Kγ (Homo sapiens, UniProt P48736); assay: In vitro determination of the PI3K enzyme inhibitory activity in the cell free assay (ADP-Glo Kinase Assay), PI3Kγ; details: ATP 30 μM, read-out: PI3K gamma inhibition
T3 construct: purchased Millipore Ltd (Billerica, Mass.)
T3 sequence (P48736 whole entry): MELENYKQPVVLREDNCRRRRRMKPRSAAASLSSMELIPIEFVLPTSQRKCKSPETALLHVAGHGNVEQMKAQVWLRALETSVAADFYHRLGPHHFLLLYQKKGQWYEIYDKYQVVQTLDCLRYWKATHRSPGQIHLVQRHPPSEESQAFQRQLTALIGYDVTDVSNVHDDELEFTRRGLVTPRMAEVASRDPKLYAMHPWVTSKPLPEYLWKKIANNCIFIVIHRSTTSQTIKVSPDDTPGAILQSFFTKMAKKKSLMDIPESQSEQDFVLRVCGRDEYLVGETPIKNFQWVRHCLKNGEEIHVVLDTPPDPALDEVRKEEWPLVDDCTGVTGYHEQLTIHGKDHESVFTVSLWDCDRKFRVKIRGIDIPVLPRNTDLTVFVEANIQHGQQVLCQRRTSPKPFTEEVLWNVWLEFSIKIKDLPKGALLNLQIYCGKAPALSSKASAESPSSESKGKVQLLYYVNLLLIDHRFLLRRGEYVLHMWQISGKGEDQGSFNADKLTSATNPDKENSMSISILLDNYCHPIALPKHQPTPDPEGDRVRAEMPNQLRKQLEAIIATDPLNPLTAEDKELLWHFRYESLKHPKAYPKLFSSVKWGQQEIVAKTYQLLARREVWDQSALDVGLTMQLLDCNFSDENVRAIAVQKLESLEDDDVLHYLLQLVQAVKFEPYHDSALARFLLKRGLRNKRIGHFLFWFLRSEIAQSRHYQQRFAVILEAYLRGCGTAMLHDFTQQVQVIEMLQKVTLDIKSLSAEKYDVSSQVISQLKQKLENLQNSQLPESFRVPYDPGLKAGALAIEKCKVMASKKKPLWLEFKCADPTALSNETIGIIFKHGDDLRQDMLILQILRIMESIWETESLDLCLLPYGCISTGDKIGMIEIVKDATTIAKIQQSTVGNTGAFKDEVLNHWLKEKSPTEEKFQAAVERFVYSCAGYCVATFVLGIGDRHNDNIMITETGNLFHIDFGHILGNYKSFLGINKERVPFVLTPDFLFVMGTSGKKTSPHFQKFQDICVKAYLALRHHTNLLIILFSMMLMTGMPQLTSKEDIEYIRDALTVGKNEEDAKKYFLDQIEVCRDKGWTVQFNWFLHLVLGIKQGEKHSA
Procedure, shortened: as §1

PI3Kδ = biological target: T4, PI3Kδ (Homo sapiens, UniProt O00329); assay: In vitro determination of the PI3K enzyme inhibitory activity in the cell free assay (ADP-Glo Kinase Assay), PI3Kδ; details: ATP 80 μM, read-out: PI3K delta inhibition
T4 construct: purchased Millipore Ltd (Billerica, Mass.)
T4 sequence (O00329 whole entry): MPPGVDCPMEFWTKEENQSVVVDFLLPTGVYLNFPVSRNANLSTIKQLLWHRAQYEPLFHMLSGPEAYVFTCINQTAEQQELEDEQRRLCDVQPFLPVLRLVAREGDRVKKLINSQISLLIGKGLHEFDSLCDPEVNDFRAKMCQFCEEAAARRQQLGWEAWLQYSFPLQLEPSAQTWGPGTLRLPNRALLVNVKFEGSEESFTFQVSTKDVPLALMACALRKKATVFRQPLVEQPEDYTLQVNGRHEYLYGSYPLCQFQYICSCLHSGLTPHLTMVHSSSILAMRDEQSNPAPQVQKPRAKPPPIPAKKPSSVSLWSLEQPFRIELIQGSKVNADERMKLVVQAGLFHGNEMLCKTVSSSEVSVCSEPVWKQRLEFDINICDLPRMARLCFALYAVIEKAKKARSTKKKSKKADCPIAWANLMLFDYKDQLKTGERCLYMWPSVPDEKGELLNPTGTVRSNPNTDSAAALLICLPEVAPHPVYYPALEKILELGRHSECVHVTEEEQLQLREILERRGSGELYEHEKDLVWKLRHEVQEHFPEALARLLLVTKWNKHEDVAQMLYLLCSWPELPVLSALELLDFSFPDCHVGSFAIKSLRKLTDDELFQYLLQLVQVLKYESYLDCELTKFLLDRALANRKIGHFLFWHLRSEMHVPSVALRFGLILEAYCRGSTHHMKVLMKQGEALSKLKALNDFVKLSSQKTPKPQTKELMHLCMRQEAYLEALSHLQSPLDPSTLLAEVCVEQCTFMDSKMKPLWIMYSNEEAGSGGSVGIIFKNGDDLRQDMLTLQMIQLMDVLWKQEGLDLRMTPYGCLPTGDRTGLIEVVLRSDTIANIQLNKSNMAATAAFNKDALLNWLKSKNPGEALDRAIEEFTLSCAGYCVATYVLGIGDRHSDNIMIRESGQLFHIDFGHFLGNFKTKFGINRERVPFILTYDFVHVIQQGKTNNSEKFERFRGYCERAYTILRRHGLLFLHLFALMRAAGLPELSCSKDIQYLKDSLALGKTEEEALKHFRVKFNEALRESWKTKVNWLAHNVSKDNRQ
T4 sequence (P27986 whole entry partner): as the sequence (P27986 whole entry partner) above
Procedure, shortened: as §1

IC50 (PI3Kα)	IC50 (PI3Kβ)	IC50 (PI3Kγ)	IC50 (PI3Kδ)	SMILES
> 1 µM	0.01 to 1 µM	0.01 to 1 µM	0.01 to 1 µM	CC(c1cc2ccccn2c1-c1ccccn1)n1nc(-c2cnc(N)s2)c2c(N)ncnc21 (stereo not shown) [Example 103, 5-(4-amino-1-{1-[3-(pyridin-2-yl)indolizin-2-yl]ethyl}-1H-pyrazolo[3,4-d]pyrimidin-3-yl)-1,3-thiazol-2-amine]
> 1 µM	0.01 to 1 µM	0.01 to 1 µM	< 0.01 µM	CC(c1cc2ccccn2c1-c1ccccn1)n1nc(-c2cc(O)cc(C(F)(F)F)c2)c2c(N)ncnc21 (stereo not shown) [Example 65, 3-(4-amino-1-{1-[3-(pyridin-2-yl)indolizin-2-yl]ethyl}-1H-pyrazolo[3,4-d]pyrimidin-3-yl)-5-(trifluoromethyl)phenol]
> 1 µM	0.01 to 1 µM	> 1 µM	0.01 to 1 µM	CC(Nc1ncnc(N)c1C#N)c1cc2ccccn2c1-c1ccccn1 (stereo not shown) [Example 33, 4-amino-6-({1-[3-(pyridin-2-yl)indolizin-2-yl]ethyl}amino)pyrimidine-5-carbonitrile]
> 1 µM	0.01 to 1 µM	0.01 to 1 µM	< 0.01 µM	CC(c1cc2ccccn2c1-c1ccccn1)n1nc(-c2cc(O)cc(Cl)c2)c2c(N)ncnc21 (stereo not shown) [Example 72, 3-(4-amino-1-{1-[3-(pyridin-2-yl)indolizin-2-yl]ethyl}-1H-pyrazolo[3,4-d]pyrimidin-3-yl)-5-chlorophenol]
> 1 µM	> 1 µM	> 1 µM	> 1 µM	CC(c1cc2ccccn2c1-c1ccccn1)n1nc(-c2cc(F)cc(S(N)(=O)=O)c2)c2c(N)ncnc21 (stereo not shown) [Example 75, 3-(4-amino-1-{1-[3-(pyridin-2-yl)indolizin-2-yl]ethyl}-1H-pyrazolo[3,4-d]pyrimidin-3-yl)-5-fluorobenzene-1-sulfonamide]
0.01 to 1 µM	0.01 to 1 µM	0.01 to 1 µM	0.01 to 1 µM	CC(c1cc2ccccn2c1-c1cccc(CN(C)C)c1)n1nc(-c2cc(O)cc(F)c2)c2c(N)ncnc21 (racemic) [Example 93, 3-{4-amino-1-[1-(3-{3-[(dimethylamino)methyl]phenyl}indolizin-2-yl)ethyl]-1H-pyrazolo[3,4-d]pyrimidin-3-yl}-5-fluorophenol]
0.01 to 1 µM	0.01 to 1 µM	0.01 to 1 µM	0.01 to 1 µM	CC(c1cc2ccccn2c1-c1cscn1)n1nc(-c2cc(O)cc(F)c2)c2c(N)ncnc21 (stereo not shown) [Example 129, 3-(4-amino-1-{1-[3-(1,3-thiazol-4-yl)indolizin-2-yl]-ethyl}-1H-pyrazolo[3,4-d]pyrimidin-3-yl)-5-fluorophenol]
0.01 to 1 µM	0.01 to 1 µM	0.01 to 1 µM	0.01 to 1 µM	CC(c1cc2ccccn2c1-c1cccc(CN2CCN(C)CC2)n1)n1nc(-c2cc(O)cc(F)c2)c2c(N)ncnc21 (stereo not shown) [Example 115, 3-{4-amino-1-[1-(3-{6-[(4-methylpiperazin-1-yl)methyl]pyridin-2-yl}indolizin-2-yl)ethyl]-1H-pyrazolo-[3,4-d]pyrimidin-3-yl}-5-fluorophenol]
> 1 µM	0.01 to 1 µM	> 1 µM	< 0.01 µM	CC(c1cc2cccnn2c1-c1ccccn1)n1nc(-c2cc(O)cc(F)c2)c2c(N)ncnc21 (stereo not shown) [Example 96, 3-(4-amino-1-{1-[7-(pyridin-2-yl)pyrrolo[1,2-b]pyridazin-6-yl]ethyl}-1H-pyrazolo[3,4-d]pyrimidin-3-yl)-5-fluorophenol]
> 1 µM	> 1 µM	> 1 µM	> 1 µM	CC(=O)Nc1cccc(-c2nn(C(C)c3cc4ccccn4c3-c3ccccn3)c3ncnc(N)c23)c1 (stereo not shown) [Example 63, N-[3-(4-amino-1-{1-[3-(pyridin-2-yl)indolizin-2-yl]ethyl}-1H-pyrazolo[3,4-d]pyrimidin-3-yl)phenyl]acetamide]
> 1 µM	0.01 to 1 µM	> 1 µM	< 0.01 µM	CC(c1c(C(F)(F)F)c2ccccn2c1-c1ccccn1)n1nc(-c2cc(O)cc(F)c2)c2c(N)ncnc21 (stereo not shown) [Example 124, 3-(4-amino-1-{1-[3-(pyridin-2-yl)-1-(trifluoromethyl)indolizin-2-yl]ethyl}-1H-pyrazolo[3,4-d]pyrimidin-3-yl)-5-fluorophenol]
> 1 µM	> 1 µM	> 1 µM	0.01 to 1 µM	C[C@@H](c1cc2ccccn2c1-c1ccncc1)n1nc(-c2cc(O)cc(F)c2)c2c(N)ncnc21 (single isomer, unassigned) [Example 84, 3-(4-amino-1-{1-[3-(pyridin-4-yl)indolizin-2-yl]ethyl}-1H-pyrazolo[3,4-d]pyrimidin-3-yl)-5-fluorophenol]
> 1 µM	0.01 to 1 µM	0.01 to 1 µM	< 0.01 µM	Cc1cc(-c2c(C(C)n3nc(-c4cc(O)cc(F)c4)c4c(N)ncnc43)cc3ccccn23)ccn1 (stereo not shown) [Example 106, 3-(4-amino-1-{1-[3-(2-methylpyridin-4-yl)indolizin-2-yl]ethyl}-1H-pyrazolo[3,4-d]pyrimidin-3-yl)-5-fluorophenol]
> 1 µM	> 1 µM	> 1 µM	> 1 µM	Nc1ncn(Cc2cc3ccccn3c2-c2cccc(F)c2)c2ncnc1-2 [Example 5, 3-{[3-(3-fluorophenyl)indolizin-2-yl]methyl}-3H-purin-6-amine]
> 1 µM	> 1 µM	> 1 µM	> 1 µM	Fc1ccccc1-c1c(CNc2ncnc3[nH]cnc23)cc2ccccn12 [Example 16, N-{[3-(2-fluorophenyl)indolizin-2-yl]methyl}-9H-purin-6-amine]
> 1 µM	> 1 µM	> 1 µM	0.01 to 1 µM	Cc1ccccc1-c1c(CNc2ncnc(N)c2C#N)cn2ccccc12 [Example 29, 4-amino-6-({[1-(2-methylphenyl)indolizin-2-yl]methyl}amino)pyrimidine-5-carbonitrile]
> 1 µM	0.01 to 1 µM	0.01 to 1 µM	< 0.01 µM	CC(c1cc2ccccn2c1-c1cc(CN2CCOCC2)ccn1)n1nc(-c2cc(O)cc(F)c2)c2c(N)ncnc21 (stereo not shown) [Example 111, 3-[4-amino-1-(1-{3-[4-(morpholin-4-ylmethyl)pyridin-2-yl]indolizin-2-yl}ethyl)-1H-pyrazolo[3,4-d]-pyrimidin-3-yl]-5-fluorophenol]
> 1 µM	0.01 to 1 µM	> 1 µM	< 0.01 µM	C[C@H](c1cc2ccccn2c1-c1ccc(CN2CCOCC2)cn1)n1nc(-c2cc(O)cc(F)c2)c2c(N)ncnc21 (single isomer, unassigned) [Example 108b, 3-[4-amino-1-(1-{3-[5-(morpholin-4-ylmethyl)pyridin-2-yl]indolizin-2-yl}ethyl)-1H-pyrazolo[3,4-d]pyrimidin-3-yl]-5-fluorophenol]
> 1 µM	> 1 µM	> 1 µM	> 1 µM	Cc1ccccc1-c1c(Cn2cnc3c(N)ncnc32)cn2ccccc12 [Example 12, 9-{[1-(2-methylphenyl)indolizin-2-yl]methyl}-9H-purin-6-amine]
0.01 to 1 µM	0.01 to 1 µM	> 1 µM	< 0.01 µM	CC(c1cc2ccccn2c1-c1ccn(CCN(C)C)n1)n1nc(-c2cc(O)cc(F)c2)c2c(N)ncnc21 (stereo not shown) [Example 147, 3-{4-amino-1-[1-(3-{1-[2-(dimethylamino)-ethyl]-1H-pyrazol-3-yl}indolizin-2-yl)-ethyl]-1H-pyrazolo[3,4-d]pyrimidin-3-yl}-5-fluorophenol]
> 1 µM	> 1 µM	0.01 to 1 µM	< 0.01 µM	CC(c1cc2ccccn2c1-c1ccc(=O)n(CCN2CCOCC2)c1)n1nc(-c2cc(O)cc(F)c2)c2c(N)ncnc21 (stereo not shown) [Example 120, 5-(2-{1-[4-amino-3-(3-fluoro-5-hydroxyphenyl)-1H-pyrazolo[3,4-d]pyrimidin-1-yl]ethyl}-indolizin-3-yl)-1-[2-(morpholin-4-yl)ethyl]-1,2-dihydropyridin-2-one]
> 1 µM	0.01 to 1 µM	> 1 µM	0.01 to 1 µM	C[C@H](c1cc2ccccn2c1-c1cccc(CN(C)C)c1)n1nc(-c2cc(O)cc(F)c2)c2c(N)ncnc21 (single isomer, unassigned) [Example 93b, 3-{4-amino-1-[1-(3-{3-[(dimethylamino)methyl]phenyl}indolizin-2-yl)ethyl]-1H-pyrazolo[3,4-d]pyrimidin-3-yl}-5-fluorophenol]
> 1 µM	> 1 µM	> 1 µM	0.01 to 1 µM	CC(c1cc2ccccn2c1-c1ccccn1)n1nc(-c2cccnc2)c2c(N)ncnc21 (stereo not shown) [Example 68, 1-{1-[3-(pyridin-2-yl)indolizin-2-yl]ethyl}-3-(pyridin-3-yl)-1H-pyrazolo[3,4-d]pyrimidin-4-amine]
0.01 to 1 µM	0.01 to 1 µM	0.01 to 1 µM	0.01 to 1 µM	CC(c1cc2ccccn2c1CN1CC2(CCN(C)CC2)C1)n1nc(-c2cc(O)cc(F)c2)c2c(N)ncnc21 (stereo not shown) [Example 144, 3-(4-amino-1-{1-[3-({7-methyl-2,7-diazaspiro[3.5]nonan-2-yl}methyl)indolizin-2-yl]ethyl}-1H-pyrazolo[3,4-d]pyrimidin-3-yl)-5-fluorophenol]
> 1 µM	> 1 µM	> 1 µM	> 1 µM	Nc1ncnc2c1ncn2Cc1cc2ccccn2c1-c1ccccn1 [Example 3, 9-{[3-(pyridin-2-yl)indolizin-2-yl]methyl}-9H-purin-6-amine]
